In patent US9408820B2, “Broncholytic drug on the basis of prostaglandin” (OBSCHESTVO S OGRANICHENNOY OTVETSTVENNOST'YU “PROSTANIT …, priority 2012, dated 2016):

Legend:
[1] = tested on: individuals; conditions: in vivo; cited from earlier work
[2] = tested on: guinea pig trachea; conditions: isolated guinea pig trachea; read-out: EC50, relaxation of the guinea pig trachea; cited from earlier work
[3] = tested on: patients with bronchial asthma in unstable remission state; assay: broncholytic activity by inhalation in patients with bronchial asthma; type: in vivo, human
Excerpt: (§1) The present invention solves the task of creating of bronchial dilating drug on the basis of 1′,3′-dinitroglycerol ester of 11(S),15(S)-dihydroxy-9-keto-5Z,13E-prostadienoic acid (nitroproston). This drug is any form of nitroproston suitable for introduction into the respiratory tract by inhalation, for example in the form of isotonic solution. […] Therapeutic index measured in rodents is greater than 15000.
On the x-axis is the time after the introduction of the nitroproston, min; on the y-axis is the peak exhale velocity (l/min). The names of patients are abbreviated.
(§2) The tests were carried out on healthy volunteers (average age 42.6±3.9 years) and patients with bronchial asthma in unstable remission state (average age 48.3±5.1 years). Nitroproston was introduced via inhalation in the form of a solution in the physiological solution in doses of 5 and 7.5 μg per inhalation. To a person skilled in the art will not meet a difficulty to prepare the solution for inhalation, knowing the dose of the active substance and the volume of the solution, which will be determined by technical features used in the specific context of the inhaler. […] External respiratory function was determined with the help of automatic spiroanalyzer (VI 8911, Estonia). […] So, change the maximum 25% volume exhalation velocity ranged from 10.4 to 32.2% as compared to the original values. Changes in peak volumetric velocity of exhalation in patients who have received 7.5 micrograms nitroproston per inhalation, are presented at the FIG. 1.

[4] = tested on: white outbred male mice; assay: acute toxicity and therapeutic index in mice; type: in vivo; conditions: alcohol solution
Procedure: Experiments conducted on white outbred male mice (22±2 g weight). Nitroproston in the form of alcohol solution was injected intraperitoneal to the 10 mice in a maximum of 50 μl per dose of 215 mg/kg. The control group (10 animals) was injected with the same volume of pure ethyl alcohol. Animal health monitoring period was 14 days. Therapeutic index defined as the ratio of LD50 values (toxic dose) to the ED20 for change in blood pressure (pharmacological dose).

[5] = tested on: healthy volunteers; assay: inhalation in healthy volunteers, external respiratory function; type: in vivo, human
Procedure: as §1, §2

[6] = tested on: white outbred male mice; assay: toxicity in repeated introduction in mice; type: in vivo; conditions: 50 and 500 μg/kg daily for 14 days
Procedure: Experiments conducted on white outbred male mice (22±2 g weight). Animals were divided into three groups of 10 animals each. Nitroproston (1% of alcoholic solution) was diluted with water and was injected in the volume 20 μl in two doses: 50 and 500 μg/kg. The control group was injected with equal volume of distilled water. The injections worked every day for 14 days. The animals were observed daily, measuring their weight, the intake of food and water. There have been observed no differences in the state and behavior of the animals between the control and experimental groups.

For `CCCCC[C@H](O)/C=C/[C@H]1[C@H](O)CC(=O)[C@@H]1C/C=C\CCCC(=O)O` [natural prostaglandin E2, prostaglandin E2, reference compound], the “side effect in individuals” value [1] is given as “strong cough reflex” and the EC50 [2] is given as 140 ± 80 nM.

For `CCCCC[C@H](O)/C=C/[C@H]1[C@@H](O)CC(=O)[C@@H]1C/C=C\CCCC(=O)OC(CO[N+](=O)[O-])CO[N+](=O)[O-]` [nitroproston, 1′,3′-dinitroglycerol ester of 11(S),15(S)-dihydroxy-9-keto-5Z,13E-prostadienoic acid], the “parameters of external breath” value ([3]; 5 μg per inhalation) was “improved slightly”, the side effects ([3]; 5 μg per inhalation) was “have not noticed any side effects” and the external respiration indices ([3]; 7.5 μg per inhalation) was “have been improved”. The “toxicity at therapeutic doses” value ([3]; 5-20 μg per inhalation) was “non-toxic”, the “peak volumetric velocity of exhalation” value ([3]; 7.5 micrograms per inhalation, within 360 minutes (FIG. 1)) was “strongest increase” and the “only side effect of the inhalation solution” value ([3]; inhalation solution) was “transient dry mouth”. The “bronchial dilation and side effects” value ([3]; isotonic solution, 7.5 micrograms per inhalation) was “prolonged dilation of bronchus without side effects”, the cough bouts ([3]; patients with asthma, inhalation) was “no cough bouts” and the animal deaths ([4]; 215 mg/kg intraperitoneal, 14 days observation) was “animal deaths have not observed”. The acute toxicity assessment ([4]; intraperitoneal, mice) was “low-toxic compound”, the “changes in the functions of the external respiration” value [5] was “did not cause significant changes” and the cough bouts [5] was “no cough bouts”. The EC50 [2] was 7 nM and the “toxic effects on repeated introduction” value [6] was “no toxic effects”.

For `CC(Cc1ccc(O)cc1)NCC(O)c1cc(O)cc(O)c1` (stereo not drawn) [Berotec, reference compound], the bronchospasm test result ([3]; patients with bronchial asthma) was “positive result” and the “changes in the functions of the external respiration” value [5] was “did not cause significant changes”.
